Measurements: ChEMBL document CHEMBL4507266, “Data for DCP probe BAY-784” (2021)

How the values were obtained:
[1] = target: T1, D(4) dopamine receptor (Homo sapiens) (UniProt P21917); experiment: Inhibition of Dopamine D4.2 at 10 µM in the Eurofins-Panlabs radioligand binding assay (Eurofins_assay_219900); parameters: ligand concentration 0.5 nM; settings: Compound concentration 10.0 uM
T1 sequence (whole entry): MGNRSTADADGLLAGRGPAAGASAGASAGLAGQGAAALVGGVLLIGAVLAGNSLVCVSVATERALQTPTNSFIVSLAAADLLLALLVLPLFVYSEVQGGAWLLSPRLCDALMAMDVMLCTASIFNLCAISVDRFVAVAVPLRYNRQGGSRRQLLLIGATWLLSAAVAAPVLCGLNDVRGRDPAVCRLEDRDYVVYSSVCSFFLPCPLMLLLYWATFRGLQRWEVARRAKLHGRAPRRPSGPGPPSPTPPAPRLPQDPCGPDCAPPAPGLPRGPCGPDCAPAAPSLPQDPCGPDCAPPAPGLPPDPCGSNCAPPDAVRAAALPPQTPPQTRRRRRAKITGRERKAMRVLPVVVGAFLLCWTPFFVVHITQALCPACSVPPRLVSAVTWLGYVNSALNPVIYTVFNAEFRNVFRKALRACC

[2] = target: 5-hydroxytryptamine receptor 1A (Homo sapiens) (UniProt P08908); settings: Compound concentration 10.0 uM
[3] = target: Endothelin-1 receptor (Homo sapiens) (UniProt P25101); settings: Compound concentration 10.0 uM
[4] = target: Caspase-1 (Homo sapiens) (UniProt P29466); experiment: Inhibition of Peptidase, CASP1 (Caspase 1) at 10 µM in the Eurofins-Panlabs enzyme assay (Eurofins_assay_163000); settings: Compound concentration 10.0 uM
[5] = target: Muscarinic acetylcholine receptor M4 (Homo sapiens) (UniProt P08173); settings: Compound concentration 10.0 uM
[6] = target: T2, Alpha-1A adrenergic receptor (Homo sapiens) (UniProt P35348); settings: Rattus norvegicus; Compound concentration 10.0 uM
T2 sequence (whole entry): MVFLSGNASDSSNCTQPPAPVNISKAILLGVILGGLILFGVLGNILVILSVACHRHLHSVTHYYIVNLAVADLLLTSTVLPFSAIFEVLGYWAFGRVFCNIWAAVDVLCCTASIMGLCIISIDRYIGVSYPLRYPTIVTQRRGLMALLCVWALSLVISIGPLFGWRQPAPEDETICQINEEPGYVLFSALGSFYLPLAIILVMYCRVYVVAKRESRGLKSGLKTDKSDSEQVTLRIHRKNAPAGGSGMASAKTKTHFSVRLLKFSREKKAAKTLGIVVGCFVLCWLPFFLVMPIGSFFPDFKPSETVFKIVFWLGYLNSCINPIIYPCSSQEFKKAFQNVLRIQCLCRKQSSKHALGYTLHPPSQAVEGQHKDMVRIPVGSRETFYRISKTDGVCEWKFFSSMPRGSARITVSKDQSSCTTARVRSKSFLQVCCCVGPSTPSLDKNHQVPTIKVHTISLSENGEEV

[7] = target: Cannabinoid receptor 1 (Homo sapiens, UniProt P21554); experiment: Inhibition of Cannabinoid CB1 at compound concentration of 10.0 uM in the Eurofins-Panlabs radioligand binding assay (Eurofins_assay_217030); parameters: ligand concentration 2 nM, non-specific ligand with concentration 10 uM R(+)-WIN-55,212-2, incubation time 90 min, incubation temperature 37 C
[8] = target: CYP2C9 (Homo sapiens, UniProt P11712); experiment: CYP450, 2C9 Eurofins-Panlabs enzyme assay; settings: compound concentration 10 uM
[9] = target: Estrogen receptor (Homo sapiens) (UniProt P03372); settings: Compound concentration 10.0 uM
[10] = target: Adenosine receptor A1 (Homo sapiens) (UniProt P30542); settings: Compound concentration 10.0 uM
[11] = target: Polyunsaturated fatty acid lipoxygenase ALOX15 (Homo sapiens) (UniProt P16050); experiment: Inhibition of Lipoxygenase 15-LO at 10 µM in the Eurofins-Panlabs enzyme assay (Eurofins_assay_138000); settings: Oryctolagus cuniculus; Compound concentration 10.0 uM
[12] = target: Delta-type opioid receptor (Homo sapiens) (UniProt P41143); settings: Compound concentration 10.0 uM
[13] = target: cGMP-specific 3',5'-cyclic phosphodiesterase (Homo sapiens) (UniProt O76074); settings: Compound concentration 10.0 uM
[14] = target: 5-hydroxytryptamine receptor 2B (Homo sapiens) (UniProt P41595); settings: Compound concentration 10.0 uM
[15] = Inhibition of Platelet-Derived Growth Factor (PDGF) at 10 µM in the Eurofins-Panlabs radioligand binding assay (Eurofins_assay_265200); settings: Compound concentration 10 uM; Detection method Radioligand Binding; Incubation temperature 25 °C; Incubation time 45 min; Ligand [3H]PDGF; Ligand concentration 0.02 nM; Non-specific ligand with concentration 10 nM PDGF; Source of protein Swiss mouse 3T3 embryo cells
[16] = target: Type-2 angiotensin II receptor (Homo sapiens) (UniProt P50052); settings: Compound concentration 10.0 uM
[17] = target: T3, 5-hydroxytryptamine receptor 2C (Homo sapiens) (UniProt P28335); settings: Compound concentration 10.0 uM
T3 sequence (whole entry): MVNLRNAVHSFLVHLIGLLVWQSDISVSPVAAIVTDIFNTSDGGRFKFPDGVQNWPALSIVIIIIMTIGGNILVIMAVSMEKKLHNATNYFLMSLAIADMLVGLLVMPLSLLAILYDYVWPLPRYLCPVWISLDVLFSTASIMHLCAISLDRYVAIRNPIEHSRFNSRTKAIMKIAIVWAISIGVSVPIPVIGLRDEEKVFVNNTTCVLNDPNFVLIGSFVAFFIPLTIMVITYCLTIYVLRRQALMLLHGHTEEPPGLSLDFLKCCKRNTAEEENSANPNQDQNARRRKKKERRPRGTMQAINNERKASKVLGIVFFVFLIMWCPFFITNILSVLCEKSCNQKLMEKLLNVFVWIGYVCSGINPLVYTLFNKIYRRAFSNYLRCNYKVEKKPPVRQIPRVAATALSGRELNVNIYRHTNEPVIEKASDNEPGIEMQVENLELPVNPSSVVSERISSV

[18] = target: Melanocortin receptor 4 (Homo sapiens) (UniProt P32245); experiment: Inhibition of Melanocortin MC4 at 10 µM in the Eurofins-Panlabs radioligand binding assay (Eurofins_assay_251350); parameters: ligand concentration 0.02 nM; settings: Compound concentration 10.0 uM
[19] = target: D(1A) dopamine receptor (Homo sapiens, UniProt P21728); experiment: GPCRScan assay: inhibition of D1; parameters: radioligand conc. used [nm] 0.6 – 1.3, parental cells HEKT

Sequence of Endothelin-1 receptor (Homo sapiens) (P25101 whole entry): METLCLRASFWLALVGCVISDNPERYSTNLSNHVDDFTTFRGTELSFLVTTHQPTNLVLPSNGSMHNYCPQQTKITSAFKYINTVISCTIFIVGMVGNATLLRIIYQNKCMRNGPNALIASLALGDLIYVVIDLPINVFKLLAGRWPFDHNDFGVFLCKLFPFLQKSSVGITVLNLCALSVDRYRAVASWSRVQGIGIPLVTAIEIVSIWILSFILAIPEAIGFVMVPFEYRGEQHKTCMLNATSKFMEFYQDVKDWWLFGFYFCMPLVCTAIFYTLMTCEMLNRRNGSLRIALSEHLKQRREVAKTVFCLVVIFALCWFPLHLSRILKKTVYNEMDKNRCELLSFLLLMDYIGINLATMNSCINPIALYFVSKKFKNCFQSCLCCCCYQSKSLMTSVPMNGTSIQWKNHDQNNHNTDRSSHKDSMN
Sequence of 5-hydroxytryptamine receptor 2B (Homo sapiens) (P41595 whole entry): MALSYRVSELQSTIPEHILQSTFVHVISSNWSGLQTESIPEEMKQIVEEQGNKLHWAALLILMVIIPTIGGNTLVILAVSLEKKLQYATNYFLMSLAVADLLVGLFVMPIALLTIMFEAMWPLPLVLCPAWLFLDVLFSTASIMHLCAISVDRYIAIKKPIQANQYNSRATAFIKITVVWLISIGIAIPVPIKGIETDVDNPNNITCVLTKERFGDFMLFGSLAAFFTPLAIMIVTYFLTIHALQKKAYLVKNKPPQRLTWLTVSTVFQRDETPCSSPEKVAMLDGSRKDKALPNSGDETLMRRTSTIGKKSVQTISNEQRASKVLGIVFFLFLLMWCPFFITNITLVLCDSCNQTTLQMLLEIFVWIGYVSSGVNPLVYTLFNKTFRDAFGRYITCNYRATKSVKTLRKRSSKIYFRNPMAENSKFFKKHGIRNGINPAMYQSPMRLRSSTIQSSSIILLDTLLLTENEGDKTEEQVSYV
Sequence of 5-hydroxytryptamine receptor 1A (Homo sapiens) (P08908 whole entry): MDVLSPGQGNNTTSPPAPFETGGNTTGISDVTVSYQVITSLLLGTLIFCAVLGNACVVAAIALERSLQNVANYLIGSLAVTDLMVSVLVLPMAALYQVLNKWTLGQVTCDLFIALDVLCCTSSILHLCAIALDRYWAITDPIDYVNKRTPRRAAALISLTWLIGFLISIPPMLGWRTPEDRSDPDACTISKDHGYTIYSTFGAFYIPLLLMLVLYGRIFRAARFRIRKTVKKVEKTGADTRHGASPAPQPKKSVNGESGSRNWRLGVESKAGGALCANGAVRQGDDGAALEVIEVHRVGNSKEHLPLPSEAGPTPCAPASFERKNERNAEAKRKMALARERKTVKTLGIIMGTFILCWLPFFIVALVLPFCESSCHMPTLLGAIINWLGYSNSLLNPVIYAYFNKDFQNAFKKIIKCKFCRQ
Sequence of Estrogen receptor (Homo sapiens) (P03372 whole entry): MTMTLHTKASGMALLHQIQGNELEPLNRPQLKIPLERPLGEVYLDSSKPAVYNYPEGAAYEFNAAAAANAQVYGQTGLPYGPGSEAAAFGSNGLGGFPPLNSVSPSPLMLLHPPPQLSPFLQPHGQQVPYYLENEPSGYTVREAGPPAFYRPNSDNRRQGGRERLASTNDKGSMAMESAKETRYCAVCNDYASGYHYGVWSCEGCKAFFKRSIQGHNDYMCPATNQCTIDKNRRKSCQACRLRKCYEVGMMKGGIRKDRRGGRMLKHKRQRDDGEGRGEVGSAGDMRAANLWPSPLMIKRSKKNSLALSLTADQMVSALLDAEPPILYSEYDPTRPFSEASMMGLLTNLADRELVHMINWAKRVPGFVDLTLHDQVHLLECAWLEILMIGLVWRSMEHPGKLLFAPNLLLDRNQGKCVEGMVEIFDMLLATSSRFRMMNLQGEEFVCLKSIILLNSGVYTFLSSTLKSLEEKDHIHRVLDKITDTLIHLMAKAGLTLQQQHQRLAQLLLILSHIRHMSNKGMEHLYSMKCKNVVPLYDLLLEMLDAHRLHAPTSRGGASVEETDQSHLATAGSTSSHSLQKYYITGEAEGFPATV
Sequence of Adenosine receptor A1 (Homo sapiens) (P30542 whole entry): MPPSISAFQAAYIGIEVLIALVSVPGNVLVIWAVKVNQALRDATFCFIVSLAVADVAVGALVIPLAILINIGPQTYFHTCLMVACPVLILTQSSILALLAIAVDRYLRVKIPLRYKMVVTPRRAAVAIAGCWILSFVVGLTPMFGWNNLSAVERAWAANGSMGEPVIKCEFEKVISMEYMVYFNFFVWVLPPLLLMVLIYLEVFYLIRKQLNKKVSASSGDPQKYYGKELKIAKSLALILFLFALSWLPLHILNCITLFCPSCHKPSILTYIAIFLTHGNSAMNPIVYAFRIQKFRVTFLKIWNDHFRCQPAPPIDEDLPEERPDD
Sequence of CYP2C9 (P11712 whole entry): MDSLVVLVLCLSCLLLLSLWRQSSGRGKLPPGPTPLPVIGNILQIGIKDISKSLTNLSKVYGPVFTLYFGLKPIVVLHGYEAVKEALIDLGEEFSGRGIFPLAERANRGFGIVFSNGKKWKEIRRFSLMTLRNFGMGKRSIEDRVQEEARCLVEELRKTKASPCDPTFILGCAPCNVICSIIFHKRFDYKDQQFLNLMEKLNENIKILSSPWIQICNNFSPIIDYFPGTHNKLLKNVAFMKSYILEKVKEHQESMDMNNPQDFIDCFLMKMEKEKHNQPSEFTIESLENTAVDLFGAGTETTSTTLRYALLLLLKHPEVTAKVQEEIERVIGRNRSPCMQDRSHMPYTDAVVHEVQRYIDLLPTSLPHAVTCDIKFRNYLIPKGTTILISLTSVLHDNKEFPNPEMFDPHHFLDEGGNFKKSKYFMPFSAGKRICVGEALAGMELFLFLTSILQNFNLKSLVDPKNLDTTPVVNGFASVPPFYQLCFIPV
Sequence of Type-2 angiotensin II receptor (Homo sapiens) (P50052 whole entry): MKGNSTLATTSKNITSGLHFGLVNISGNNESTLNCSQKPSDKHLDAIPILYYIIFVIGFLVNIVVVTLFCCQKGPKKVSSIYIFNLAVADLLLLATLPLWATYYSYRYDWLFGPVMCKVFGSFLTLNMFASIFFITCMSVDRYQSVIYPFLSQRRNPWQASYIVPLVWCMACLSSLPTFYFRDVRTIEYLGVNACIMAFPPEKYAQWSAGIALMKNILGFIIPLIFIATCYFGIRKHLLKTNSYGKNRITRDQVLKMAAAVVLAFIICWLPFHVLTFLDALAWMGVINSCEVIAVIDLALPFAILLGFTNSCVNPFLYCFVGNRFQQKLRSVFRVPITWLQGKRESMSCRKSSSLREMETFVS
Sequence of Caspase-1 (Homo sapiens) (P29466 120-297 limits assumed): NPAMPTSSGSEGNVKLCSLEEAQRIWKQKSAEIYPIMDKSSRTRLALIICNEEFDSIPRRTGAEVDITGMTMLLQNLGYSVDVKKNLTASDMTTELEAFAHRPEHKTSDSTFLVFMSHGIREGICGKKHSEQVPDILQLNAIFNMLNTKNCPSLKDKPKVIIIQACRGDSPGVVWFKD
Sequence of Caspase-1 (Homo sapiens) (P29466 317-404 limits assumed): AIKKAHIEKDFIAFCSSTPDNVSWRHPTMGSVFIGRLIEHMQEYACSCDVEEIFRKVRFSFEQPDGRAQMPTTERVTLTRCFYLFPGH
Sequence of Melanocortin receptor 4 (Homo sapiens) (P32245 whole entry): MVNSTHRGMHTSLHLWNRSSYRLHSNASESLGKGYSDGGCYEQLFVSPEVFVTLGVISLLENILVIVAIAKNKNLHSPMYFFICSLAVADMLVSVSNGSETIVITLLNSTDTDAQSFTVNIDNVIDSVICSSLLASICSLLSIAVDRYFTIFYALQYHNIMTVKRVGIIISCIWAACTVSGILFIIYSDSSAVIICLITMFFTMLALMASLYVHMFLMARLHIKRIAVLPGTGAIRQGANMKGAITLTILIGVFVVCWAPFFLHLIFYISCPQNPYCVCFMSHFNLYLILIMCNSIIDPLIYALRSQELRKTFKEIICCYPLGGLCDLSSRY
Sequence of Cannabinoid receptor 1 (P21554 whole entry): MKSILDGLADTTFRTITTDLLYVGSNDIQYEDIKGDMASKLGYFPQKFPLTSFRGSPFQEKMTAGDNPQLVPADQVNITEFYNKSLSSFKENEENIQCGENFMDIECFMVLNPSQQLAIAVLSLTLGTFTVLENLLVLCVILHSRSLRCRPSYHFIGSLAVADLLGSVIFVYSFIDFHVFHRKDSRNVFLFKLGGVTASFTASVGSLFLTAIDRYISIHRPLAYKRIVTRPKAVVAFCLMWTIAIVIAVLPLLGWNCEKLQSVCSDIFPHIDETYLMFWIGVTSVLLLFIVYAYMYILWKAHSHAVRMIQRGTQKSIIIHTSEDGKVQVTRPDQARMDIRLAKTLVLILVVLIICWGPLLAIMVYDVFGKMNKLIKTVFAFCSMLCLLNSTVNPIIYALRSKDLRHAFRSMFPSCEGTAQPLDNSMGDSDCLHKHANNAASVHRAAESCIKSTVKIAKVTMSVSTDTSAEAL
Sequence of Delta-type opioid receptor (Homo sapiens) (P41143 whole entry): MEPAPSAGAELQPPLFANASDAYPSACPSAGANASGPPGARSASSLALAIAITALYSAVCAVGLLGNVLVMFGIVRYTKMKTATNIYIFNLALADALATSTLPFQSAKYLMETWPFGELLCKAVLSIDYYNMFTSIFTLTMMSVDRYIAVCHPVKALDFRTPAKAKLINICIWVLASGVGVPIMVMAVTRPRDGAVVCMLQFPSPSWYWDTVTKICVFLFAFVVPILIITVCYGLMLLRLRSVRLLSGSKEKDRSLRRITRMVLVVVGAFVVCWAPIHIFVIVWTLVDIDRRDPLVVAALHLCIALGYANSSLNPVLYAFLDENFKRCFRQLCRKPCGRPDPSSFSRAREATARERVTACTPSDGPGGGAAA

| Compound | inhibition [1] [%] | inhibition [2] [%] | inhibition [3] [%] | inhibition [4] [%] | inhibition [5] [%] | inhibition [6] [%] | Ki [7] [µM] | inhibition at 10 µM [8] | inhibition [9] [%] | inhibition [10] [%] | inhibition [11] [%] | inhibition [12] [%] | inhibition [13] [%] | inhibition [14] [%] | inhibition at 10 µM [15] | inhibition [16] [%] | inhibition [17] [%] | inhibition [18] [%] | Ki [19] [µM] |
| --- | --- | --- | --- | --- | --- | --- | --- | --- | --- | --- | --- | --- | --- | --- | --- | --- | --- | --- | --- |
| O=C(NCc1ncc(C(F)(F)F)cc1Cl)c1ccc2c(c1)C1(CCS(=O)(=O)CC1)[C@H](C1CC1)N2S(=O)(=O)c1ccc(F)cc1 [BAY-784] | 11 | 0 | 16 | 8 | 2 | 7 | 2.57 | 32% (not active) | 21 | 15 | 11 | 5 | -5 | 4 | -4% (not active) | -5 | 9 | 12 |  |
| O=C(NCc1ncc(C(F)(F)F)cc1Cl)c1ccc2c(c1)C1(CCS(=O)(=O)CC1)[C@@H](C1CC1)N2S(=O)(=O)c1ccc(F)cc1 [BAY-786] |  |  |  |  |  |  |  |  |  |  |  |  |  |  |  |  |  |  | 10 |
